Where two headings read alike, the source gives them in different places.
Legend:
Type in all cases: in vivo
[1] = system: giant foxtail (Setaria faberi); test: Post-emergent Test I herbicidal activity; details: 4 Kg ai/ha
Procedure: (§1) Post-emergent Test I Seeds test species were obtained from commercial suppliers and planted into a 5″-round pot containing soil-less media mix (metro-mix 360®, Sun Gro Horticulture). Postemergence treatments were planted 8-12 days prior to application and cultured in a greenhouse equipped with supplemental light sources to provide a 16 h photoperiod at 24-29° C. All pots were surface irrigated. Approximately 10 milligrams (mg) of each compound were dissolved in 1.3 mL acetone-DMSO (97:3, v/v) and diluted with 4.1 mL water-isopropanol-crop oil concentrate (78:20:2, v/v/v) containing 0.02% Triton X-155. Treatments were serial diluted with the above formulation solvent to provide 1.85, 0.926, 0.462 and 0.231 mg/mL of test compound delivered in 2.7 mL/pot (roughly equivalent to 4.0, 2.0, 1.0, and 0.5 kg/ha, respectively). Formulated compounds were applied using a DeVilbiss® compressed air sprayer at 2-4 psi. Following treatment, pots were returned to the greenhouse for the duration of the experiment. All pots were sub-irrigated as need to provide optimum growing conditions. All pots were fertilized one time per week by subirrigating with Peters Peat-Lite Special® fertilizer (20-10-20). Phytotoxicity ratings were obtained 10 days after treatment postemergence applications. All evaluations were made visually on a scale of 0 to 100 where 0 represents no activity and 100 represents complete plant death. Visual assessments of plant injury were made based on growth reduction, discoloration, leaf deformity and necrosis

[2] = system: sunflower (Helianthus annuus); test: Post-emergent Test I herbicidal activity; details: 4 Kg ai/ha
Procedure: as §1

wild oats (Avena fatua) = test: Post-emergent Test I herbicidal activity; details: 4 Kg ai/ha
Procedure: as §1

[3] = system: barnyardgrass (Echinochloa crus-galli); test: Post-emergent Test I herbicidal activity; details: 4 Kg ai/ha
Procedure: as §1

[4] = system: Key Grass and Sedge Weeds as well as Grass Crops; test: Post-emergent Test II herbicidal activity (Table 16); details: post-emergence, 336 h, 14 d; for pest or weed control at 35 g/ha: 35 g ai/ha; for pest or weed control at 70 g/ha: 70 g ai/ha; for pest or weed control at 140 g/ha: 140 g ai/ha
Summary of the method: (§2)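 Plants at first-second true leaf stage, grown 7-21 d in greenhouse (~15 h photoperiod, 23-29 °C day), were track-sprayed at 187 L/ha with compound in acetone/DMSO/water/isopropanol/crop oil/Triton X-155 at a high rate plus 1/2× to 1/16× dilutions. Injury scored visually after 14 d versus untreated plants, 0 (none) to 100% (complete kill).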

[5] = system: Key Broadleaf Weed and Crop Species; test: Post-emergent Test II herbicidal activity (Table 15); details: post-emergence, 336 h, 140 g ai/ha, 14 d
Summary of the method: as §2

[6] = Cyperus esculentus, yellow nutsedge (Cyperus esculentus), read-out: Visual Growth Reduction (%) 14 Days After Application, CYPES
[7] = Echinochloa crus-galli, barnyardgrass (Echinochloa crus-galli), read-out: Visual Growth Reduction (%) 14 Days After Application, ECHCG
[8] = Oryza sativa, rice (Oryza sativa), read-out: Visual Growth Reduction (%) 14 Days After Application, ORYSA
[9] = Setaria faberi, giant foxtail (Setaria faberi), read-out: Visual Growth Reduction (%) 14 Days After Application, SETFA
[10] = Triticum aestivum, wheat, spring (Triticum aestivum), read-out: Visual Growth Reduction (%) 14 Days After Application, TRZAS
[11] = Zea mays, maize, corn (Zea mays), read-out: Visual Growth Reduction (%) 14 Days After Application, ZEAMX

## Nc1c(F)c(-c2cccc3cc[nH]c23)nc(C(=O)O)c1Cl [Compound 1.48]
[1]
  Visual Growth Reduction (%) 10 Days After Application SETFA: G (0-29)
[2]
  Visual Growth Reduction (%) 10 Days After Application HELAN: C (75-84)
Wild oats (Avena fatua)
  Visual Growth Reduction (%) 10 Days After Application AVEFA: G (0-29)
[3]
  Visual Growth Reduction (%) 10 Days After Application ECHCG: G (0-29)
[4]; [6]
  pest or weed control at 35 g/ha: 0 to 29%
  pest or weed control at 70 g/ha: 0 to 29%
  pest or weed control at 140 g/ha: 0 to 29%
[4]; [7]
  pest or weed control at 35 g/ha: 0 to 29%
  pest or weed control at 70 g/ha: 0 to 29%
  pest or weed control at 140 g/ha: 0 to 29%
[4]; [8]
  pest or weed control at 35 g/ha: 0 to 29%
  pest or weed control at 70 g/ha: 0 to 29%
  pest or weed control at 140 g/ha: 0 to 29%
[4]; [9]
  pest or weed control at 35 g/ha: 0 to 29%
  pest or weed control at 70 g/ha: 0 to 29%
  pest or weed control at 140 g/ha: 0 to 29%
[4]; [10]
  pest or weed control at 35 g/ha: 0 to 29%
  pest or weed control at 70 g/ha: 0 to 29%
  pest or weed control at 140 g/ha: 0 to 29%
[4]; [11]
  pest or weed control at 35 g/ha: 0 to 29%
  pest or weed control at 70 g/ha: 0 to 29%
  pest or weed control at 140 g/ha: 0 to 29%
[5]; Abutilon theophrasti, velvetleaf (Abutilon theophrasti), read-out: Visual Growth Reduction (%) 14 Days After Application, ABUTH
  pest or weed control at 140 g/ha: 0 to 29%
[5]; Amaranthus retroflexus, redroot pigweed (Amaranthus retroflexus), read-out: Visual Growth Reduction (%) 14 Days After Application, AMARE
  pest or weed control at 140 g/ha: 0 to 29%
[5]; Brassica napus, oilseed rape, canola (Brassica napus), read-out: Visual Growth Reduction (%) 14 Days After Application, BRSNN
  pest or weed control at 140 g/ha: 0 to 29%
[5]; Chenopodium album, lambsquarters (Chenopodium album), read-out: Visual Growth Reduction (%) 14 Days After Application, CHEAL
  pest or weed control at 140 g/ha: 60 to 74%
[5]; Euphorbia heterophylla, wild poinsettia (Euphorbia heterophylla), read-out: Visual Growth Reduction (%) 14 Days After Application, EPHHL
  pest or weed control at 140 g/ha: 0 to 29%
[5]; Helianthus annuus, sunflower (Helianthus annuus), read-out: Visual Growth Reduction (%) 14 Days After Application, HELAN
  pest or weed control at 140 g/ha: 75 to 84%

From patent US20170050957A1, “4-AMINO-6-(HETEROCYCLIC)PICOLINATES AND 6-AMINO-2-(HETEROCYCLIC)PYRIMIDINE-4-CARBOXYLATES AND THEIR USE AS HERBICIDES” (Dow AgroSciences LLC, priority 2013, published 2017)
